Results published in EP2520297A1, “Rubreserine and its derivates with antiparasitic activity” (Commissariat à l'Énergie Atomique et aux Énergies …, priority 2011, dated 2012).
Read-outs that look alike come from different tables or passages of the source.

Legend:
[1] = tested on: Toxoplasma gondii tachyzoites (RH-YFP2 strain); assay: Toxoplasma gondii invasion assay in human fibroblasts; format: cell-based; settings: for IC50: Toxoplasma gondii, Fibroblast, calculated from the curves of Figures 3A and 3B (invasion and intracellular replication)
Procedure: (§1) Toxoplasma gondii tachyzoites (RH-YFP2 strain) were propagated in human foreskin fibroblasts (HFFs). Human cells were grown in DMEM supplemented with 100 U/mL penicillin, […] streptomycin, 2 mM glutamine, and 10% FBS (Gibco). To obtain extracellular parasites, host cells were forced through a 26.5 gauge needle, and then the released parasites were purified by filtration through a 3 µm polycarbonate membrane before use.
For the invasion assay, RH-YFP2 parasites were incubated for 5 hours with the different drugs. Then 10^6 parasites/well were centrifuged for 30 seconds at 1300 rpm on HFF monolayers to synchronize invasion and wells were incubated for 15 minutes in a water bath at 37°C. Wells were washed three times with cold PBS to eliminate extracellular parasites and cells were fixed in 2.5% formaldehyde/PBS for 30 minutes and stored in PBS at 4°C until staining. To distinguish intracellular from extracellular parasites, cells were incubated with the primary antibody mAb Tg05-54 to detect the major Toxoplasma surface protein SAG1 (TgSAG1), then with Texas Red-conjugated goat anti-mouse secondary antibody (Molecular Probes). […] Nuclei were stained with Hoechst 33258 (Molecular Probes). To determine the number of intracellular parasites, 12 randomly selected fields were counted per well and per experiment with a Zeiss Axioplan 2 microscope equipped for epifluorescence and phase-contrast. Invasion was expressed as % of the number of intracellular parasites recorded in non-treated cells.

[2] = tested on: Toxoplasma gondii; settings: read-out: IC50 generally reported in the literature; P. Meneceur, Antimicrob. Agents Chemother. 52 (2008); cited from earlier work
[3] = biological target: T1, recombinant Arabidopsis thaliana GAT-ADCS (Arabidopsis thaliana, UniProt Q8LPN3); assay: Determination of GAT-ADCS activities (glutamate or pABA production, fluorescence); format: biochemical
T1 construct: made in house
T1 sequence (Q8LPN3 46-919): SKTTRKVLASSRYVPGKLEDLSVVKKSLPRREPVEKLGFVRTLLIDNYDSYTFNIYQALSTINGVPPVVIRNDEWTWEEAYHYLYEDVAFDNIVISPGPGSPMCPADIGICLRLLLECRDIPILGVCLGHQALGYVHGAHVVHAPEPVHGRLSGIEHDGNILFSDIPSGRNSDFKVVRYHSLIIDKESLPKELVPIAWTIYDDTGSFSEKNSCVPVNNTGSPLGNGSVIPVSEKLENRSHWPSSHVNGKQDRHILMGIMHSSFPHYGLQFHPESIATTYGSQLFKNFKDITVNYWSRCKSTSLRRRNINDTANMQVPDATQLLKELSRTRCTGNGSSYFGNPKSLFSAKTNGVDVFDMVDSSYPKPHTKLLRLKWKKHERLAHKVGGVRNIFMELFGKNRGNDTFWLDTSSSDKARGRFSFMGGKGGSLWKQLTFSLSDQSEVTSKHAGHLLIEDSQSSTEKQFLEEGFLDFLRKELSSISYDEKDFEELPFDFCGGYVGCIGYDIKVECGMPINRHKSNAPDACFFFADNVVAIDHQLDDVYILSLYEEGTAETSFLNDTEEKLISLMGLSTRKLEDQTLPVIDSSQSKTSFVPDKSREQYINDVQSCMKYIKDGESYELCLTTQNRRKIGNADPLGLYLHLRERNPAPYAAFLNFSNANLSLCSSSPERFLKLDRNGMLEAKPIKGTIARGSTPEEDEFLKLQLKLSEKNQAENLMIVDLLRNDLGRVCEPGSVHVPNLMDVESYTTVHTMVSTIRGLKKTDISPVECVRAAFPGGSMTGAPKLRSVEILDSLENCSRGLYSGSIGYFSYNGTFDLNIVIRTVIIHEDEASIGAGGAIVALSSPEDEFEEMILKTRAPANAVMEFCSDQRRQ
Procedure: Both proteins were expressed and purified as described in the publication of D. Camara et al., Archives of Biochemistry and Biophysics 505 (2011) 83-90.
GAT-ADCS activity can be determined by measuring the production of either glutamate or pABA. Standard assays contained 100 mM Tris/HCl (pH 8.0), 5 mM MgCl2, 5% V/V glycerol, 0 to 0.5 mM L-glutamine, 0.1 mM chorismate, 9 yg ml^-1 (90 nM) of the recombinant Arabidopsis thaliana GAT-ADCS and either 1 mM NAD and an excess of glutamate deshydrogenase (GDH) for glutamate determination, or an excess of Escherichia coli ADCL (20 µg ml^-1, 600 nM) for pABA determination. Reactions (final volume 80 µl) were run in the wells of a 96 well microplate (Greiner) and changes in fluorescence were continuously monitored with a microplate scanning spectrophotometer Safir 2 (Tecan). The glutamate production was followed by the fluorescence emission of NADH at 450 nm (excitation 340 nm). The pABA production was directly followed by the increase of the fluorescence emission at 340 nm (excitation 290 nm).
The equipment involved an automated screening station (Tecan Genesis 2000, Lyon, France), including a microplate reader. The platform is controlled by software for driving of serial devices and assays scheduling (Tecan Gemini 4.2 and FACTS 4.82 software). The library of compounds was purchased from The Prestwick Chemical Library®. This library contains 1200 molecules, 100% being marketed drugs, supplied at a 5 mM concentration in DMSO. The final concentration used in the enzymatic assay was 100 µM, and it was verified in separate control experiments that 2% DMSO had no effect on the activity. The enzymatic test used to determine GAT-ADCS activity in primary and secondary screenings was based on glutamate determination, as described above. After optimization of the assay, the Z' factor was comprised between 0.68 and 0.84.

[4] = biological target: T2, ADCL (Escherichia coli, UniProt P28305); assay: Control experiment on ADCL; format: biochemical; settings: control experiments
T2 construct: made in house
T2 sequence (P28305 whole entry): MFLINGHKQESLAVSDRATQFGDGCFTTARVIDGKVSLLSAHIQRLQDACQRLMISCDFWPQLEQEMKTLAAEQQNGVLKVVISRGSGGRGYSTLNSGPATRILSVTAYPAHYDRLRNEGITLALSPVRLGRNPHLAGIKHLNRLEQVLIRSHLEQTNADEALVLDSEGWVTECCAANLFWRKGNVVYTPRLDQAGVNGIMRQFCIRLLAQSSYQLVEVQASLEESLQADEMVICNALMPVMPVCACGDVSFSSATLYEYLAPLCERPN

[5] = tested on: Arabidopsis thaliana (ecotype Columbia) seedlings; assay: Arabidopsis thaliana seedling growth on agar plates; format: in vivo
Procedure: Arabidopsis thaliana (ecotype Columbia) seedlings were grown on plates containing Murashige and Skoog medium, […], plus the various molecules to be tested. Seeds were first sterilized by soaking for 15 minutes in a solution containing 0,095% Tween® 20 and 0,57% sodium hypochlorite before to be laid on the agar medium. The plates were conserved in the dark at 4°C for 48 hours, and then transferred in a green house (20°C, 80% humidity, 150 µE.m^-2.s^-1, 12 hours light period). The number of seedlings at the two leaf stage (rosette stage) was counted after 2 weeks.

[6] = tested on: Toxoplasma gondii tachyzoites (RH-YFP2 strain); assay: Toxoplasma gondii intracellular proliferation assay; format: cell-based
Procedure: as §1
For the proliferation assay, 10^5 parasites/well were centrifuged on HFF monolayers for 30 seconds at 1300 rpm and incubated for 15 minutes in a water bath at 37°C for invasion. Wells were then washed three times with PBS to eliminate extracellular parasites and drugs were added. After 24 hours at 37°C in a humidified atmosphere containing 5% CO2, cells were fixed as described above. The number of parasites from up to 200 individual vacuoles was counted for each drug concentration.

[7] = tested on: 3D7 strain of Plasmodium falciparum; assay: Plasmodium falciparum SYBR Green 1-based fluorescence growth assay; format: cell-based; settings: 3D7, 96 h
Procedure: The 3D7 strain of Plasmodium falciparum was maintained in O+ blood. A rubreserine 10 mM stock concentration was made up in 1 × PBS pH = 7.5. This stock solution was then diluted serially to obtain the growth curve. Growth inhibition was measured after 96 hours by using an in vitro SYBR Green 1-based fluorescence growth assay, as previously described (T. N. Bennett et al., Antimicrob. Agents Chemoter. (2004) 48 1807-1810; M. Smilkstein et al., Antimicrob. Agents Chemoter. (2004) […] 1803-1806).

[8] = tested on: confluent human fibroblast cells; assay: Effect on confluent human fibroblast cells; format: cell-based; settings: concentrations up to 50 µM
Procedure: Firstly, it was verified that rubreserine concentrations up to 50 µM had no effect on confluent human fibroblast cells. The effect of rubreserine on Toxoplasma gondii parasites was then studied in two situations: • i) in invasion of human fibroblasts, and • ii) in intracellular development of the parasites.

[9] = biological target: ADCS (Escherichia coli, UniProt P05041); settings: purified enzyme; M. C. Kozlowski et al., J. Am. Chem. Soc. 117 (1995); cited from earlier work
Sequence of ADCS (P05041 whole entry): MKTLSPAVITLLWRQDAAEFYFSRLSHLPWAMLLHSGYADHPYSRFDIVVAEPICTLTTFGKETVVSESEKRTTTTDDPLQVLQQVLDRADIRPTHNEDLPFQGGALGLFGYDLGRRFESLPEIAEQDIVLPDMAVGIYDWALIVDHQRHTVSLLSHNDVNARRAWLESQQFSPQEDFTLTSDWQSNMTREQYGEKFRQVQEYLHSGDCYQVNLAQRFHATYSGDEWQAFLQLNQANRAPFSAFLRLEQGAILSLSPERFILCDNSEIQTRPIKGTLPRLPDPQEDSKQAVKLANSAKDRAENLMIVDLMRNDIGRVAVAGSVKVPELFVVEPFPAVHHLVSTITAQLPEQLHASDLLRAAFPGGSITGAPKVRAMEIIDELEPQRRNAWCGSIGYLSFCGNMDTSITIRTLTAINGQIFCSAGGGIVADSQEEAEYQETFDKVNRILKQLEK

Nc1ccc(S(=O)(=O)Nc2ncccn2)cc1 [sulfadiazine, reference compound]
IC50 [1]: > 50 µM | IC50 [2]: > 30 µM

CN1CCC2(C)c3cc(O)ccc3N(C)C12 (single isomer, unassigned) [eseroline, reference compound]
effect on the enzyme activity [3]: no or little effect

CN1CCC2(C)C3=CC(=O)C(=O)C=C3N(C)C12 (stereo not shown) [rubreserine]
period of incubation required to obtain maximal inhibition ([3]; GAT activity, 10 and 20 µM): 20 min | Ki ([3]; bifunctional GAT-ADCS, summary statement, read-out: apparent inhibitory constant (Ki)): < 10 µM | type of inhibition ([3]; decreased Vm for pABA production, increased Km for glutamine): mixed-type inhibition | inhibitory effect after incubation with a reducing agent ([3]; incubation with dithiothreitol (DTT)): suppressed the inhibitory effect | Ki ([3]; pABA production, varying glutamine, 100 µM chorismate, 20 minutes incubation with rubreserine, estimated from the curves, read-out: Ki): ~4 µM | Ki ([3]; pABA production, varying glutamine, 100 µM chorismate, 20 minutes incubation with rubreserine, estimated from the curves, read-out: αKi): ~9 µM | effect on ADCL [4]: no effect | growth inhibition with 5-formyl tetrahydrofolate ([5]; 200 µM 5-FTHF together with rubreserine, lower extent than pABA): able to revert the inhibitory effect | growth inhibition with pABA ([5]; agar plates supplemented with 200 µM pABA together with rubreserine): suppressed or largely reduced | growth of seedlings ([5]; agar plates, various concentrations (50 or 100 µM), two weeks): dose-dependent growth inhibition | number of intracellular parasites ([1]; 20 µM, parasites incubated 5 hours with drug, 15 minutes contact with human cells): reduced two times | IC50 [1]: ~20 µM | efficiency compared with sulfanilamide and sulfadiazine ([1]; invasion of human fibroblasts or intracellular replication): more efficient | inhibition in the presence of pABA or 5-FTHF ([6]; 20 µM rubreserine with 100 µM pABA or 100 µM 5-FTHF): significantly reversed the inhibition | number of parasites in the parasitophorous vacuoles ([6]; 24 hours after invasion, 200 vacuoles counted): decreased | inhibition in combination with pyrimethamine ([6]; rubreserine 20 µM with pyrimethamine 0.4 µM, compared to rubreserine alone): increased | IC50 [7]: ~1.2 µM | effect on confluent human fibroblast cells [8]: no effect

C=C(OC1C(O)=C(C(=O)O)C=CC1N)C(=O)O (stereo not shown) [2-hydroxy-4-amino-4-deoxy chorismate]
Ki [9]: 38 µM
